This note sets out measurements from paper PMC12013712, “The protein kinases KIPK and KIPK-LIKE1 suppress overbending during negative hypocotyl gravitropic growth in Arabidopsis” (The Plant Cell, 2025).

For one assay, the target named is T1, KIPKL2 (Arabidopsis thaliana, UniProt Q9LZS4).
T1 construct: gene AGC1-8; GST fusion (PIP strips) or MBP fusion (phosphorylation), tags kept, from E. coli Rosetta (DE3)
T1 sequence (Q9LZS4 1-926): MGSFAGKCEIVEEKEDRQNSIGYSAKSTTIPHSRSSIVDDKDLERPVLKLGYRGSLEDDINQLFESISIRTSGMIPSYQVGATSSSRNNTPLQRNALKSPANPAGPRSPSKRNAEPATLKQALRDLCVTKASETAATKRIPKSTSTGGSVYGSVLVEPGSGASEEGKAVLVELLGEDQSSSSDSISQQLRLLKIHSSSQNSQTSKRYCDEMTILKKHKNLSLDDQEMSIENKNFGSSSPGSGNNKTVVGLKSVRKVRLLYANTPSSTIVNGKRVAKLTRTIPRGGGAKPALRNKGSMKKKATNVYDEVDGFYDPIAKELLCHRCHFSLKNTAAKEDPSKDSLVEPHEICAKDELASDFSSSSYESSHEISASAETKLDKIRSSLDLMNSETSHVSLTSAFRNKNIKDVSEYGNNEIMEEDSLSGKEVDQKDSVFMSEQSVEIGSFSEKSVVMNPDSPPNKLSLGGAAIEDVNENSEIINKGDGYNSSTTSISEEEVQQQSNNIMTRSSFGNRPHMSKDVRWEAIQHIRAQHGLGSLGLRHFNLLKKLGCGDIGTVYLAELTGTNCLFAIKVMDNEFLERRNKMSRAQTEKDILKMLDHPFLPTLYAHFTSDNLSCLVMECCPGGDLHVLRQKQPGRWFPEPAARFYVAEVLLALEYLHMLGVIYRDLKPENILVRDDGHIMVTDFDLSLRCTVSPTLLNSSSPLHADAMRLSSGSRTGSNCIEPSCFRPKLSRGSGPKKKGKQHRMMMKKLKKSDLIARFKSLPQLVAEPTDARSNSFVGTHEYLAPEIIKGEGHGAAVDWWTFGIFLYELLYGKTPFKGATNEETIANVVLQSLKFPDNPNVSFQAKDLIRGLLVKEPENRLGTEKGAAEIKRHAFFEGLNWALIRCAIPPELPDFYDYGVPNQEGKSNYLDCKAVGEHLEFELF
The assay can be described thus: in vitro phosphorylation of GST-PIN3CL, autoradiography. It counts as biochemical. To be noted: MBP fusion; 100 µM ATP with [γ-32P]ATP, labelled compound; 5 mM MgCl2, pH 7.5, 30 °C, 1 h.

Another assay has as its target T2, KIPK (Arabidopsis thaliana, UniProt Q9LFA2).
T2 construct: gene KIPK1; GST fusion (PIP strips) or MBP fusion (phosphorylation), tags kept, from E. coli Rosetta (DE3)
T2 sequence (Q9LFA2 1-934): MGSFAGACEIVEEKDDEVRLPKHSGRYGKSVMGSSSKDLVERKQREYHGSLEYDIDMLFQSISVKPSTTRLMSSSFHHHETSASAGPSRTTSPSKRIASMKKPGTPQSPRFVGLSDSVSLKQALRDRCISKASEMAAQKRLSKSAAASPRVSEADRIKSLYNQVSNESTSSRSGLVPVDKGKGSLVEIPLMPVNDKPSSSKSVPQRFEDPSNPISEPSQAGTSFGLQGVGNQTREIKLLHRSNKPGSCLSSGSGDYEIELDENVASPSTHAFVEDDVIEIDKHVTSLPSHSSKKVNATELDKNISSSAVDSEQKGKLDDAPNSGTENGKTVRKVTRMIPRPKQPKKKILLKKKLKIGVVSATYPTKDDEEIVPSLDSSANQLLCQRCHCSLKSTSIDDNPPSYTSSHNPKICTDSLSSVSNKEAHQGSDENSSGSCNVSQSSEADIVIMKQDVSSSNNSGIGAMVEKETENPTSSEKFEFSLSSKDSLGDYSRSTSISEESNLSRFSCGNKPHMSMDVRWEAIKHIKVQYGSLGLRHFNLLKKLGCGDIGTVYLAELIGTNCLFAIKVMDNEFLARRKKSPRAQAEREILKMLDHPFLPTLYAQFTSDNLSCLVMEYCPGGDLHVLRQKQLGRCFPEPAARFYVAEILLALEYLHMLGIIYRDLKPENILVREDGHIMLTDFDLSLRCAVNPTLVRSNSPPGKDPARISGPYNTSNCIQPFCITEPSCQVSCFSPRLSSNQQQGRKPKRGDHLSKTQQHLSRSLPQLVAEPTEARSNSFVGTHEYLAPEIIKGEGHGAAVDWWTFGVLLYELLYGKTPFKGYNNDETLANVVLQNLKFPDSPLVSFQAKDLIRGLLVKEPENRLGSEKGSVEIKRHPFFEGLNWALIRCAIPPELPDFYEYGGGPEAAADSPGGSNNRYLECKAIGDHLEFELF
The assay is described as above. It counts as biochemical. To be noted: MBP fusion; 100 µM ATP with [γ-32P]ATP, labelled compound; 5 mM MgCl2, pH 7.5, 30 °C, 1 h.

The target of another assay is T3, KIPKL1 (Arabidopsis thaliana, UniProt Q9SJM3).
T3 construct: gene KIPK2; GST fusion (PIP strips) or MBP fusion (phosphorylation), tags kept, from E. coli Rosetta (DE3)
T3 sequence (Q9SJM3 1-949): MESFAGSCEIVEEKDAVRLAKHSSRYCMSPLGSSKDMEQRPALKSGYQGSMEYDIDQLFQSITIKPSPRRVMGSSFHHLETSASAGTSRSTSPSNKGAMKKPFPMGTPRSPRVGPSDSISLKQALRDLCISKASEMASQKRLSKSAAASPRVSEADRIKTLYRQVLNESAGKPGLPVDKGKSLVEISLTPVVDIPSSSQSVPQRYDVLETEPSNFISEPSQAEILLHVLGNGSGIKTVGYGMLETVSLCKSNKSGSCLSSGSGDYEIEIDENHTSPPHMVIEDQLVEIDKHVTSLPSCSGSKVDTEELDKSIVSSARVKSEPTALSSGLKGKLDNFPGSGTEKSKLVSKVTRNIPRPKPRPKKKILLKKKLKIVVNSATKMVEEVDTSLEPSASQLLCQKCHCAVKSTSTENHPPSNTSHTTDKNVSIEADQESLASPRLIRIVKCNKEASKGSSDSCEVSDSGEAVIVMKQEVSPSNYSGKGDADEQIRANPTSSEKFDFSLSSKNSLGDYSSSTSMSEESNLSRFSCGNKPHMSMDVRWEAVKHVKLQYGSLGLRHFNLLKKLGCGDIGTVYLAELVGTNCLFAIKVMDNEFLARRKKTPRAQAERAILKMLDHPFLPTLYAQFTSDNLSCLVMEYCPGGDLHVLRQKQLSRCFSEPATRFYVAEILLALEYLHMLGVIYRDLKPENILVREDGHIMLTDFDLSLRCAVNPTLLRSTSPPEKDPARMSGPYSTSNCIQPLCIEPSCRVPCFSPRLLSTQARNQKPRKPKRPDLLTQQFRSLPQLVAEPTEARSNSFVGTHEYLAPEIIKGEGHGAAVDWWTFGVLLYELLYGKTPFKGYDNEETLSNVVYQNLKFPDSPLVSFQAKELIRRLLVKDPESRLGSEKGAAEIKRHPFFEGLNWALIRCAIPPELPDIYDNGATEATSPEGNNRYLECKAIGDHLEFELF
The assay is described as above. Format: biochemical. The note with it: MBP fusion; 100 µM ATP with [γ-32P]ATP, labelled compound; 5 mM MgCl2, pH 7.5, 30 °C, 1 h.

The next assay concerns the target T4, PIN3 (Arabidopsis thaliana, UniProt Q9S7Z8).
T4 sequence (Q9S7Z8 1-640): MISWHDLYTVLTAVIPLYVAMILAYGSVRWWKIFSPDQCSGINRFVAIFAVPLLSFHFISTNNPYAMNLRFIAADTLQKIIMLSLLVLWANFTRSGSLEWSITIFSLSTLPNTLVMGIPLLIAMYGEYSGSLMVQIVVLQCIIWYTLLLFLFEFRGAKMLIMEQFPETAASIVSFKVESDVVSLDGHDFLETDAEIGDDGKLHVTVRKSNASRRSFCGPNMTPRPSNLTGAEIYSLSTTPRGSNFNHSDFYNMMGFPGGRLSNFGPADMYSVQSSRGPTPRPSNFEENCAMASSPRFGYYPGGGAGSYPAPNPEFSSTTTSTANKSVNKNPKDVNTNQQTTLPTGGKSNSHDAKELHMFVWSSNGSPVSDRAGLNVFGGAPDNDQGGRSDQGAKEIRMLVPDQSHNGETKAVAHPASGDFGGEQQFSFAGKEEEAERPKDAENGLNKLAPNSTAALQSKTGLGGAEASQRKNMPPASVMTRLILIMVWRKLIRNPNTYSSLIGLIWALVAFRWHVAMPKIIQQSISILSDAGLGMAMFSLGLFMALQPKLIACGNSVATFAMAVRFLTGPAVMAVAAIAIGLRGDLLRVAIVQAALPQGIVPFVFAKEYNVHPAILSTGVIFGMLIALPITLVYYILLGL
The assay can be described thus: [3H]-IAA efflux from Xenopus oocytes. Format: cell-based. The note with it: co-expressed with KIPK or KIPKL1; about 1 µM internal [3H]-IAA, labelled compound; outside pH 7.4, 21 °C.

For the compound `Nc1ncnc2c1ncn2[C@@H]1O[C@H](COP(=O)(O)OP(=O)(O)OP(=O)(O)O)[C@@H](O)[C@H]1O` [ATP], the “in vitro phosphorylation of GST-PIN3CL, autoradiography” value was “GST-PIN3CL phosphorylation by MBP-KIPKL2 was reproducibly comparatively less efficient” on KIPKL2; “MBP-KIPK and MBP-KIPKL1 phosphorylated the GST- (glutathione-S-transferase-) tagged PIN3 cytoplasmic loop” on KIPK; “MBP-KIPK and MBP-KIPKL1 phosphorylated the GST- (glutathione-S-transferase-) tagged PIN3 cytoplasmic loop” at KIPKL1.
Turning to `O=C(O)Cc1c[nH]c2ccccc12` [IAA], on PIN3, the “[3H]-IAA efflux from Xenopus oocytes” value was “PIN3-mediated auxin efflux was activated when PIN3 was co-expressed with KIPK or KIPKL1”.
